# Laboratory results as given in patent US8217035B2, “Pyrimidine derivatives used as PI-3-kinase inhibitors” (Novartis AG, priority 2006, dated 2012).
# Target: PI3 kinase alpha (Homo sapiens, UniProt P42336)
# Assay: PI3K ATP depletion assay (Biological Method 1, Assay 3; KinaseGlo luminescence)
# Assay type: biochemical
# Conditions: ATP depletion assay, Biological Method 1; read-out: PI3 Kinase Alpha, IC50
# Procedure, shortened: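 Compound in DMSO was mixed with 10 nM PI3 kinase and 5 μg/mL phosphatidylinositol, and the reaction was started with 2 μM ATP. It ran to about 50% ATP depletion and was stopped with KinaseGlo.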
# PI3 kinase alpha, sequence (P42336 whole entry): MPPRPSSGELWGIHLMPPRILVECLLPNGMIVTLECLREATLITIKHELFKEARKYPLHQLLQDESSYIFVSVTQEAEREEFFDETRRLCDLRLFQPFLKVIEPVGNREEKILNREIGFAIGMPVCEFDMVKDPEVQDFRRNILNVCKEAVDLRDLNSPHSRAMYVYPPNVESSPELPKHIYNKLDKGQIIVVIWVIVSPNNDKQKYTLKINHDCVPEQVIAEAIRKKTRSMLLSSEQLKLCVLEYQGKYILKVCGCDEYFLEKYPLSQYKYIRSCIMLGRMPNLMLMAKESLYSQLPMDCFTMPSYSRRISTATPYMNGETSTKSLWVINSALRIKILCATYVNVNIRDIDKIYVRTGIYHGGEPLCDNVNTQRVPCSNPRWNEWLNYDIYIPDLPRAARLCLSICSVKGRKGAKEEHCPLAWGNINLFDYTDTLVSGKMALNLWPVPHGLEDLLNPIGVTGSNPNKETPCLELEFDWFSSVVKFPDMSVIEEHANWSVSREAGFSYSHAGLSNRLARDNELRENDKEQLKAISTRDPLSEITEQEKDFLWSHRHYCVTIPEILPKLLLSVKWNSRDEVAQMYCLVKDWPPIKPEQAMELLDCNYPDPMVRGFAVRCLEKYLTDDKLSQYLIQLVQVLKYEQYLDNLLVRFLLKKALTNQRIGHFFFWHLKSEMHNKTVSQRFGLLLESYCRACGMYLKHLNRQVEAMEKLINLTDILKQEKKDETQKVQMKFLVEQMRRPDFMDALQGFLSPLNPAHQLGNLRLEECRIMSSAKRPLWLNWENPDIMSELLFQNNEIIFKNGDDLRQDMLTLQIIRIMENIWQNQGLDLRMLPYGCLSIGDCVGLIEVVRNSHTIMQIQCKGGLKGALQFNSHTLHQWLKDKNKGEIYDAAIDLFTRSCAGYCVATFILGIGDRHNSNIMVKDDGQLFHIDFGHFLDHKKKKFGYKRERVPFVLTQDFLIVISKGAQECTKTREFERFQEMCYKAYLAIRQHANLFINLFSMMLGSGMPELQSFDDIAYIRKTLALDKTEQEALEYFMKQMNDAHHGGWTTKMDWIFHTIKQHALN
# PI3 kinase alpha, sequence (P27986 whole entry partner): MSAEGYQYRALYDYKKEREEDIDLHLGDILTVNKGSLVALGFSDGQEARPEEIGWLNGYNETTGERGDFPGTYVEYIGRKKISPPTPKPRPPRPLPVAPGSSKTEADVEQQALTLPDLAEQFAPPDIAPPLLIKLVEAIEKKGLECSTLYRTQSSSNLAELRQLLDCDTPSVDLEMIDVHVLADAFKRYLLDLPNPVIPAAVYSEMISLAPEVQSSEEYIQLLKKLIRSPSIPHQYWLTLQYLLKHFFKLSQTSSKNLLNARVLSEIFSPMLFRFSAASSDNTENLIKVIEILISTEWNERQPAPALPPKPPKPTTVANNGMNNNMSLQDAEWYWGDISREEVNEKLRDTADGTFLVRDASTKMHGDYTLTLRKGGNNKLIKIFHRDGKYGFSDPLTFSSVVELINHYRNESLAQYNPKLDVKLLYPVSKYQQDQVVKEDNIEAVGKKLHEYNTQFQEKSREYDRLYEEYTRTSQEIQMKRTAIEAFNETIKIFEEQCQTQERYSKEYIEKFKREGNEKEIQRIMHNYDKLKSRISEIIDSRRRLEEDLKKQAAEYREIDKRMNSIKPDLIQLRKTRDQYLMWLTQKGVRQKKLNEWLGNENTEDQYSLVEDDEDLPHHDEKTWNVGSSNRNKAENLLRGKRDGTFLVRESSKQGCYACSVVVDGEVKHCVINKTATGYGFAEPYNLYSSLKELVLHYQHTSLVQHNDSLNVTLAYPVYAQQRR
row,Compound,IC50
1,Nc1cc(C(F)(F)F)c(-c2cc(Nc3cccc(S(=O)(=O)N4CCCCC4)c3)nc(N3CCOCC3)n2)cn1 [Compound 207],< 1000 nM
2,CS(=O)(=O)c1ccc(Nc2cc(-c3cnc(N)nc3N)nc(N3CCOCC3)n2)cn1 [Compound 214],< 1000 nM
3,Cc1c(-c2cnc(N)nc2)nc(N2CCOCC2)nc1-c1ccnc(Nc2ncc(-c3ccccc3)s2)c1 [Compound 215],< 1000 nM

# Same assay, conditions: ATP depletion assay; read-out: PI3 Kinase Alpha, IC50
row,Compound,IC50
1,CS(=O)(=O)Nc1ncccc1-c1cc(-c2cnc(N)cc2C#N)nc(N2CCOCC2)n1 [Compound 136],< 1000 nM
2,Nc1ccc(-c2cc(Nc3ccncc3F)nc(N3CCOCC3)n2)cn1 [Compound 196],< 1000 nM
3,CC(C)N1CC[C@H](Oc2ccc(Nc3cc(-c4cnc(N)cc4C(F)(F)F)nc(N4CCOCC4)n3)cn2)C1 [Compound 188],< 1000 nM
4,CC(C)N1CCC(Oc2cncc(-c3cc(-c4cnc(N)cc4C(F)(F)F)nc(N4CCOCC4)n3)c2)CC1 [Compound 79],< 1000 nM
5,Nc1ccc(-c2cc(Nc3cccc(-c4cnco4)c3)nc(N3CCOCC3)n2)cn1 [Compound 163],< 1000 nM
6,CS(=O)(=O)N1CCC(Oc2cc(-c3cnc(N)[nH]c3=O)nc(N3CCOCC3)n2)CC1 [Compound 58],< 1000 nM
7,Nc1ncc(-c2cc(OC3CCN(C(=O)c4ccccc4)CC3)nc(N3CCOCC3)n2)c(=O)[nH]1 [Compound 48],< 1000 nM
8,Nc1cc(C(F)(F)F)c(-c2cc(Nc3ccncc3C(F)(F)F)nc(N3CCOCC3)n2)cn1 [Compound 153],< 1000 nM
9,CC(C)C(=O)N1CCC[C@H](Oc2cc(-c3cnc(N)nc3N)nc(N3CCOCC3)n2)C1 [Compound 72],< 1000 nM
10,Nc1ncc(-c2cc(O[C@@H]3CCOC3)nc(N3CCOCC3)n2)c(=O)[nH]1 [Compound 56],< 1000 nM
11,N#Cc1cnc(Nc2cc(-c3cnc(N)cc3C(F)(F)F)nc(N3CCOCC3)n2)s1 [Compound 144],< 1000 nM
12,Nc1ccc(-c2cc(Nc3cnc4ccc(OCCN5CCCC5)cc4c3)nc(N3CCOCC3)n2)cn1 [Compound 181],< 1000 nM
13,CCN(CC)Cc1cnc(Nc2cc(-c3cnc(N)nc3C(F)(F)F)nc(N3CCOCC3)n2)s1 [Compound 40],< 1000 nM
14,CS(=O)(=O)c1cc(Nc2cc(-c3cnc(N)cc3C(F)(F)F)nc(N3CCOCC3)n2)ccn1 [Compound 90],< 1000 nM
15,CS(=O)(=O)c1cccc(-c2cc(-c3cnc(N)cc3Cl)nc(N3CCOCC3)n2)c1 [Compound 165],< 1000 nM
16,CC(C)OC(=O)N1CCC[C@H](Oc2cc(-c3cnc(N)nc3N)nc(N3CCOCC3)n2)C1 [Compound 167],< 1000 nM
17,COc1ccc2cc(Nc3cc(-c4cnc(N)nc4)nc(N4CCOCC4)n3)cnc2c1 [Compound 60],< 1000 nM

# Test system: pSer473 Akt in A2780 cells
# Assay: pSer473 Akt assay to monitor PI3K pathway in A2780 cells (Biological Method 2, MSD)
# Assay type: cell-based
# Conditions: Homo sapiens, A2780; inhibition of Akt phosphorylation, Biological Method 2
# Procedure: In this method, an assay for measuring the PI3K-mediated pSer473-Akt status after treatment with representative inhibitor compounds of the invention is described.
# A2780 cells were cultured in DMEM supplemented with 10% FBS. L-glutamine, sodium pyruvate, and antibiotics. Cells were plated in the same medium at a density of 15,000 cells per well into 96 well tissue culture plates, with outside wells vacant, and allowed to adhere overnight.
# Test compounds supplied in DMSO were diluted further into DMSO at 500 times the desired final concentrations before dilution into culture media to 2 times the final concentrations. Equal volumes of 2× compounds were added to the cells in 96 well plates and incubated at 37° C. for one hour. The media and compounds were then removed, the plates chilled and cells lysed in a lysis buffer (150 mM NaCl, 20 mM Tris pH 7.5, 1 mM EDTA, 1 mM EGTA, 1% Triton X-100) supplemented with phosphatase and protease inhibitors. After thorough mixing, lysates were transferred to both pSer473Akt and total Akt assay plates from Meso Scale Discovery (MSD), and incubated overnight with shaking at 4° C.
# The assays were read on a SECTOR Imager 6000 instrument (Meso Scale Discovery). Ratios of the signal from pSer473Akt and total Akt assays were used to correct for any variability and the percent inhibition of pSer473Akt from the total signal seen in cells treated with compound versus DMSO alone was calculated and used to determine EC50 values for each compound.
row,Compound,EC50
1,Nc1cc(C(F)(F)F)c(-c2cc(Nc3cccc(S(=O)(=O)N4CCCCC4)c3)nc(N3CCOCC3)n2)cn1 [Compound 207],< 10000 nM
2,CS(=O)(=O)c1ccc(Nc2cc(-c3cnc(N)nc3N)nc(N3CCOCC3)n2)cn1 [Compound 214],< 10000 nM
3,Cc1c(-c2cnc(N)nc2)nc(N2CCOCC2)nc1-c1ccnc(Nc2ncc(-c3ccccc3)s2)c1 [Compound 215],< 10000 nM

# Same assay, conditions: Homo sapiens; inhibition of Akt phosphorylation, A2780 cells
row,Compound,EC50
1,CS(=O)(=O)Nc1ncccc1-c1cc(-c2cnc(N)cc2C#N)nc(N2CCOCC2)n1 [Compound 136],< 1000 nM
2,Nc1ccc(-c2cc(Nc3ccncc3F)nc(N3CCOCC3)n2)cn1 [Compound 196],< 1000 nM
3,CC(C)N1CC[C@H](Oc2ccc(Nc3cc(-c4cnc(N)cc4C(F)(F)F)nc(N4CCOCC4)n3)cn2)C1 [Compound 188],< 1000 nM
4,CC(C)N1CCC(Oc2cncc(-c3cc(-c4cnc(N)cc4C(F)(F)F)nc(N4CCOCC4)n3)c2)CC1 [Compound 79],< 1000 nM
5,Nc1ccc(-c2cc(Nc3cccc(-c4cnco4)c3)nc(N3CCOCC3)n2)cn1 [Compound 163],< 1000 nM
6,CS(=O)(=O)N1CCC(Oc2cc(-c3cnc(N)[nH]c3=O)nc(N3CCOCC3)n2)CC1 [Compound 58],< 1000 nM
7,Nc1ncc(-c2cc(OC3CCN(C(=O)c4ccccc4)CC3)nc(N3CCOCC3)n2)c(=O)[nH]1 [Compound 48],< 1000 nM
8,Nc1cc(C(F)(F)F)c(-c2cc(Nc3ccncc3C(F)(F)F)nc(N3CCOCC3)n2)cn1 [Compound 153],< 1000 nM
9,CC(C)C(=O)N1CCC[C@H](Oc2cc(-c3cnc(N)nc3N)nc(N3CCOCC3)n2)C1 [Compound 72],< 1000 nM
10,Nc1ncc(-c2cc(O[C@@H]3CCOC3)nc(N3CCOCC3)n2)c(=O)[nH]1 [Compound 56],< 1000 nM
11,N#Cc1cnc(Nc2cc(-c3cnc(N)cc3C(F)(F)F)nc(N3CCOCC3)n2)s1 [Compound 144],< 1000 nM
12,Nc1ccc(-c2cc(Nc3cnc4ccc(OCCN5CCCC5)cc4c3)nc(N3CCOCC3)n2)cn1 [Compound 181],< 1000 nM
13,CCN(CC)Cc1cnc(Nc2cc(-c3cnc(N)nc3C(F)(F)F)nc(N3CCOCC3)n2)s1 [Compound 40],< 1000 nM
14,CS(=O)(=O)c1cc(Nc2cc(-c3cnc(N)cc3C(F)(F)F)nc(N3CCOCC3)n2)ccn1 [Compound 90],< 1000 nM
15,CS(=O)(=O)c1cccc(-c2cc(-c3cnc(N)cc3Cl)nc(N3CCOCC3)n2)c1 [Compound 165],< 1000 nM
16,CC(C)OC(=O)N1CCC[C@H](Oc2cc(-c3cnc(N)nc3N)nc(N3CCOCC3)n2)C1 [Compound 167],< 1000 nM
17,COc1ccc2cc(Nc3cc(-c4cnc(N)nc4)nc(N4CCOCC4)n3)cnc2c1 [Compound 60],< 1000 nM

# Test system: A2780 ovarian cancer cells
# Assay: Cellular proliferation in A2780 cells, Cell Titer Glo (Biological Method 4)
# Assay type: cell-based
# Conditions: Homo sapiens; ovarian cancer cell line A2780
# Procedure, shortened: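 A2780 cells seeded at 1,000/well in DMEM with 10% FBS, at least 2 h before compound, then exposed 72 h at 37 °C, 5% CO2. Viable cells measured by Cell Titer Glo luminescence; EC50 calculated from duplicate conditions.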
row,Compound,EC50
1,CS(=O)(=O)Nc1ncccc1-c1cc(-c2cnc(N)cc2C#N)nc(N2CCOCC2)n1 [Compound 136],< 1000 nM
2,Nc1ccc(-c2cc(Nc3ccncc3F)nc(N3CCOCC3)n2)cn1 [Compound 196],< 1000 nM
3,CC(C)N1CC[C@H](Oc2ccc(Nc3cc(-c4cnc(N)cc4C(F)(F)F)nc(N4CCOCC4)n3)cn2)C1 [Compound 188],< 10000 nM
4,CC(C)N1CCC(Oc2cncc(-c3cc(-c4cnc(N)cc4C(F)(F)F)nc(N4CCOCC4)n3)c2)CC1 [Compound 79],< 10000 nM
5,Nc1ccc(-c2cc(Nc3cccc(-c4cnco4)c3)nc(N3CCOCC3)n2)cn1 [Compound 163],< 10000 nM
6,CS(=O)(=O)N1CCC(Oc2cc(-c3cnc(N)[nH]c3=O)nc(N3CCOCC3)n2)CC1 [Compound 58],< 1000 nM
7,Nc1ncc(-c2cc(OC3CCN(C(=O)c4ccccc4)CC3)nc(N3CCOCC3)n2)c(=O)[nH]1 [Compound 48],< 1000 nM
8,Nc1cc(C(F)(F)F)c(-c2cc(Nc3ccncc3C(F)(F)F)nc(N3CCOCC3)n2)cn1 [Compound 153],< 1000 nM
9,CC(C)C(=O)N1CCC[C@H](Oc2cc(-c3cnc(N)nc3N)nc(N3CCOCC3)n2)C1 [Compound 72],< 10000 nM
10,Nc1ncc(-c2cc(O[C@@H]3CCOC3)nc(N3CCOCC3)n2)c(=O)[nH]1 [Compound 56],< 1000 nM
11,N#Cc1cnc(Nc2cc(-c3cnc(N)cc3C(F)(F)F)nc(N3CCOCC3)n2)s1 [Compound 144],< 10000 nM
12,Nc1ccc(-c2cc(Nc3cnc4ccc(OCCN5CCCC5)cc4c3)nc(N3CCOCC3)n2)cn1 [Compound 181],< 1000 nM
13,CCN(CC)Cc1cnc(Nc2cc(-c3cnc(N)nc3C(F)(F)F)nc(N3CCOCC3)n2)s1 [Compound 40],< 1000 nM
14,CS(=O)(=O)c1cc(Nc2cc(-c3cnc(N)cc3C(F)(F)F)nc(N3CCOCC3)n2)ccn1 [Compound 90],< 1000 nM
15,CS(=O)(=O)c1cccc(-c2cc(-c3cnc(N)cc3Cl)nc(N3CCOCC3)n2)c1 [Compound 165],< 1000 nM
16,CC(C)OC(=O)N1CCC[C@H](Oc2cc(-c3cnc(N)nc3N)nc(N3CCOCC3)n2)C1 [Compound 167],< 10000 nM
17,COc1ccc2cc(Nc3cc(-c4cnc(N)nc4)nc(N4CCOCC4)n3)cnc2c1 [Compound 60],< 1000 nM

# Same assay, conditions: Homo sapiens; ovarian cancer cell line A2780, Biological Method 4
row,Compound,EC50
1,Nc1cc(C(F)(F)F)c(-c2cc(Nc3cccc(S(=O)(=O)N4CCCCC4)c3)nc(N3CCOCC3)n2)cn1 [Compound 207],< 1000 nM
2,CS(=O)(=O)c1ccc(Nc2cc(-c3cnc(N)nc3N)nc(N3CCOCC3)n2)cn1 [Compound 214],< 25000 nM
3,Cc1c(-c2cnc(N)nc2)nc(N2CCOCC2)nc1-c1ccnc(Nc2ncc(-c3ccccc3)s2)c1 [Compound 215],< 10000 nM
